# According to US8916499B2, “Herbicidal compositions comprising 4-amino-3-chloro-5-fluoro-6-(4-chloro-2-fluoro-3-methoxyphenyl) pyridine-2-carboxylic acid or a derivative thereof and a protoporphyrinogen oxidase inhibitor” (Dow AgroSciences LLC, priority 2012, dated 2014):
# Several values for one entry are separate records, joined by “and”; a condition that tells them apart may be missing. Equal entries are not always repeated.
# How the values were obtained:
# LEFCH [1] = experiment: In-water applied weed control, transplanted paddy rice, greenhouse (Example II); assay type: in vivo, Leptochloa chinensis (L.) Nees; conditions: g ae/ha Compound A Benzyl Ester+g ai/ha carfentrazone-ethyl: r11 8.75+0, r12 17.5+0, r13 35+0, r14 0+28, r15 8.75+28, r16 17.5+28, r17 35+28
# LEFCH [2] = experiment: Postemergence foliar-applied weed control, direct seeded rice, greenhouse (Example I); assay type: in vivo, Leptochloa chinensis (L.) Nees
# ECHOR = experiment: In-water applied weed control, transplanted paddy rice, greenhouse (Example II); assay type: in vivo, Echinochloa oryzoides (Ard.) Fritsch
# CYPIR = experiment: Postemergence foliar-applied weed control, direct seeded rice, greenhouse (Example I); assay type: in vivo, Cyperus iria L.; conditions: g ae/ha Compound A Benzyl Ester+g ai/ha carfentrazone-ethyl: r11 8.75+0, r12 0+3.5, r13 0+7, r14 0+14, r15 8.75+3.5, r16 8.75+7, r17 8.75+14
# DIGSA = experiment: as above; assay type: in vivo, Digitaria sanguinalis (L.) Scop.; conditions: g ae/ha Compound A Acid+g ai/ha carfentrazone-ethyl: r11 4.38+0, r12 8.75+0, r13 17.5+0, r14 0+14, r15 4.38+14, r16 8.75+14, r17 17.5+14
# CYPES = experiment: as above; assay type: in vivo, Cyperus esculentus L.; conditions: g ae/ha Compound A Acid+g ai/ha carfentrazone-ethyl: r27 4.38+0, r28 8.75+0, r29 0+7, r30 0+14, r31 4.38+7, r32 8.75+7, r33 4.38+14, r34 8.75+14
# ECHCG [3] = experiment: as above; assay type: in vivo, Echinochloa crusgalli (L.) Beauv.
# IPOHE = experiment: as above; assay type: in vivo, Ipomoea hederacea Jacq.
# ECHCG [4] = experiment: In-water applied weed control, transplanted paddy rice, greenhouse (Example II); assay type: in vivo, Echinochloa crus-galli (L.) P. Beauv.; conditions: g ae/ha Compound A Acid+g ai/ha pyraclonil: r11 8.75+0, r12 17.5+0, r13 0+45, r14 8.75+45, r15 17.5+45
# ISCRU = experiment: Postemergence foliar-applied weed control, direct seeded rice, greenhouse (Example I); assay type: in vivo, Ischaemum rugosum Salisb.; conditions: g ae/ha Compound A Benzyl Ester+g ai/ha pyraclonil: r37 8+0, r38 16+0, r39 0+67.5, r40 0+135, r41 0+270, r42 8+67.5, r43 16+67.5, r44 8+135, r45 16+135, r46 8+270, r47 16+270
# CYPRO = experiment: In-water applied weed control, transplanted paddy rice, greenhouse (Example II); assay type: in vivo, Cyperus rotundus L.; conditions: g ae/ha Compound A Benzyl Ester+g ai/ha pyraclonil: r19 4.38+0, r20 8.75+0, r21 0+45, r22 0+90, r23 4.38+45, r24 8.75+45, r25 4.38+90, r26 8.75+90
# BRAPP = experiment: Postemergence foliar-applied weed control, direct seeded rice, greenhouse (Example I); assay type: in vivo, Brachiaria platyphylla (Griseb.) Nash; conditions: g ae/ha Compound A Acid+g ai/ha pyraclonil: r11 4.38+0, r12 0+33.75, r13 0+67.5, r14 0+135, r15 4.38+33.75, r16 4.38+67.5, r17 4.38+135
Compound,Visual Weed Control (%) - 21 DAA LEFCH Obs (LEFCH [1]),"Visual Weed Control (%) - 19 DAA LEFCH Obs (LEFCH [2]; g ae/ha Compound A Acid+g ai/ha carfentrazone-ethyl: r39 19.4+0, r40 0+28, r41 19.4+28)","Visual Weed Control (%) - 19 DAA LEFCH Obs (LEFCH [2]; g ae/ha Compound A n-Butyl Ester+g ai/ha carfentrazone-ethyl: r11 16+0, r12 0+28, r13 16+28)","Visual Weed Control (%) - 19 DAA ECHOR Obs (ECHOR; g ae/ha Compound A Acid+g ai/ha carfentrazone-ethyl: r28 42.4+0, r29 0+215, r30 42.4+215)",Visual Weed Control (%) - 21 DAA CYPIR Obs (CYPIR),Visual Weed Control (%) - 21 DAA DIGSA Obs (DIGSA),Visual Weed Control (%) - 21 DAA CYPES Obs (CYPES),"Visual Weed Control (%) - 21 DAA ECHCG Obs (ECHCG [3]; g ae/ha Compound A Acid+g ai/ha carfentrazone-ethyl: r11 4.38+0, r12 8.75+0, r13 17.5+0, r14 0+14, r15 4.38+14, r16 8.75+14, r17 17.5+14)","Visual Weed Control (%) - 21 DAA ECHCG Obs (ECHCG [3]; g ae/ha Compound A Benzyl Ester+g ai/ha carfentrazone-ethyl: r11 8.75+0, r12 0+3.5, r13 0+7, r14 0+14, r15 8.75+3.5, r16 8.75+7, r17 8.75+14)","Visual Weed Control (%) - 21 DAA IPOHE Obs (IPOHE; g ae/ha Compound A Acid+g ai/ha pyraclonil: r53 35+0, r54 0+270, r55 35+270)","Visual Weed Control (%) - 21 DAA IPOHE Obs (IPOHE; g ae/ha Compound A Benzyl Ester+g ai/ha pyraclonil: r27 17.5+0, r28 35+0, r29 0+270, r30 17.5+270, r31 35+270)","Visual Weed Control (%) - 20 DAA ECHOR Obs (ECHOR; g ae/ha Compound A Benzyl Ester+g ai/ha pyraclonil: r11 4.38+0, r12 8.75+0, r13 17.5+0, r14 0+45, r15 4.38+45, r16 8.75+45, r17 17.5+45)",Visual Weed Control (%) - 20 DAA ECHCG Obs (ECHCG [4]),Visual Weed Control (%) - 21 DAA ISCRU Obs (ISCRU),Visual Weed Control (%) - 20 DAA CYPRO Obs (CYPRO),"Visual Weed Control (%) - 20 DAA ECHCG Obs (ECHCG [3]; g ae/ha Compound A Acid+g ai/ha pyraclonil: r24 4.38+0, r25 8.75+0, r26 0+33.75, r27 0+67.5, r28 0+135, r29 4.38+33.75, r30 8.75+33.75, r31 4.38+67.5, r32 8.75+67.5, r33 4.38+135, r34 8.75+135)","Visual Weed Control (%) - 21 DAA ECHCG Obs (ECHCG [3]; g ae/ha Compound A Acid+g ai/ha pyraclonil: r44 17.5+0, r45 35+0, r46 0+270, r47 17.5+270, r48 35+270)",Visual Weed Control (%) - 20 DAA BRAPP Obs (BRAPP)
"CCOC(=O)C(Cl)Cc1cc(-n2nc(C)n(C(F)F)c2=O)c(F)cc1Cl (stereo not drawn) [Carfentrazone-ethyl, ethyl α,2-dichloro-5-[4-(difluoromethyl)-4,5-dihydro-3-methyl-5-oxo-1H-1,2,4-triazol-1-yl]-4-fluorobenzenepropanoate, reference compound]",10%,10%,10%,65%,0%,0%,0%,10%,0% and 10%,,,,,,,,,
"C#CCN(C)c1c(C#N)cnn1-c1nn2c(c1Cl)CCCC2 [Pyraclonil, 1-(3-chloro-4,5,6,7-tetrahydropyrazolo[1,5-a]pyridin-2-yl)-5-(methyl-2-propynylamino)-1H-pyrazole-4-carbonitrile, reference compound]",,,,,,,,,,45%,45%,40%,0%,0%,0%,0%,0%,0%
